Results taken from the supplement of paper PMC10307832.

compound: C1CCC(CC1)N(CCNCCC2=C3C(=C(C=C2)O)NC(=O)CO3)C(=O)CCNCCC4=CC(=C(C=C4)Cl)Cl [AZ505] + Cc1nc(NC(=O)N2CCC[C@H]2C(N)=O)sc1-c1ccnc(C(C)(C)C(F)(F)F)c1 [Alpelisib] (partner 2 µM); assay: relative viability (nuclei count vs DMSO), 5 days (fraction); higher = more cells survive; conditions: first compound 0.08 µM
Method in brief: (§1)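 Lung cancer cell lines in 1536-well plates got either a single drug or a fixed anchor-drug dose together with five library-drug doses (not always all listed) in √10 steps, by pin tool, on the day after seeding. Nuclei were counted after 5 days, and relative viability is the treated-to-vehicle ratio of nuclei counts. Values are medians of duplicate plates.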

| Cell Line | relative viability |
| --- | --- |
| NCI-H1755 | 0.893 |
| NCI-H2023 | 0.561 |
| HCC-15 | 0.773 |
| NCI-H1793 | 0.734 |
| PC-14 | 0.81 |
| EKVX | 0.896 |
| LC-2-ad | 0.774 |
| NCI-H1944 | 0.845 |
| NCI-H1975 | 0.578 |
| RERF-LC-KJ | 0.775 |
| NCI-H358 | 0.699 |
| NCI-H650 | 1.03 |
| PC-3 [JPC-3] | 0.914 |

same assay, conditions: first compound 0.253 µM

| Cell Line | relative viability |
| --- | --- |
| NCI-H1755 | 0.915 |
| NCI-H2023 | 0.618 |
| HCC-15 | 0.926 |
| NCI-H1793 | 0.804 |
| PC-14 | 0.964 |
| EKVX | 1.04 |
| LC-2-ad | 0.797 |
| NCI-H1944 | 0.858 |
| NCI-H1975 | 0.689 |
| RERF-LC-KJ | 0.767 |
| NCI-H358 | 0.741 |
| NCI-H650 | 1.31 |
| PC-3 [JPC-3] | 0.961 |

same assay, conditions: first compound 0.8 µM

| Cell Line | relative viability |
| --- | --- |
| NCI-H1755 | 0.911 |
| NCI-H2023 | 0.588 |
| HCC-15 | 0.918 |
| NCI-H1793 | 0.827 |
| PC-14 | 0.925 |
| EKVX | 0.896 |
| LC-2-ad | 0.832 |
| NCI-H1944 | 0.839 |
| NCI-H1975 | 0.651 |
| RERF-LC-KJ | 0.741 |
| NCI-H358 | 0.859 |
| NCI-H650 | 1.03 |
| PC-3 [JPC-3] | 0.941 |

same assay, conditions: first compound 2.53 µM

| Cell Line | relative viability |
| --- | --- |
| NCI-H1755 | 0.883 |
| NCI-H2023 | 0.491 |
| HCC-15 | 0.809 |
| NCI-H1793 | 0.844 |
| PC-14 | 0.906 |
| EKVX | 0.899 |
| LC-2-ad | 0.957 |
| NCI-H1944 | 0.806 |
| NCI-H1975 | 0.651 |
| RERF-LC-KJ | 0.901 |
| NCI-H358 | 0.729 |
| NCI-H650 | 1.14 |
| PC-3 [JPC-3] | 0.919 |

same assay, conditions: first compound 8 µM

| Cell Line | relative viability |
| --- | --- |
| NCI-H1755 | 0.923 |
| NCI-H2023 | 0.533 |
| HCC-15 | 0.933 |
| NCI-H1793 | 0.881 |
| PC-14 | 0.961 |
| EKVX | 1.01 |
| LC-2-ad | 0.877 |
| NCI-H1944 | 0.881 |
| NCI-H1975 | 0.654 |
| RERF-LC-KJ | 0.863 |
| NCI-H358 | 0.795 |
| NCI-H650 | 1.21 |
| PC-3 [JPC-3] | 0.979 |

compound: Cn1c(=O)n(-c2ccc(C(C)(C)C#N)cc2)c2c3cc(-c4cnc5ccccc5c4)ccc3ncc21 [Dactolisib] + CC(=O)Nc1cccc(-n2c(=O)n(C3CC3)c(=O)c3c(Nc4ccc(I)cc4F)n(C)c(=O)c(C)c32)c1 [Trametinib] (partner 0.02 µM); assay: as above; conditions: first compound 0.002 µM
Method in brief: as §1

| Cell Line | relative viability |
| --- | --- |
| NCI-H1755 | 0.779 |
| NCI-H2023 | 0.582 |
| HCC-15 | 0.383 |
| NCI-H1793 | 0.418 |
| PC-14 | 0.81 |
| EKVX | 0.368 |
| LC-2-ad | 0.838 |
| NCI-H1944 | 0.429 |
| NCI-H1975 | 0.36 |
| RERF-LC-KJ | 0.86 |
| NCI-H358 | 0.123 |
| NCI-H650 | 1.04 |
| PC-3 [JPC-3] | 0.718 |

same assay, conditions: first compound 0.006325 µM

| Cell Line | relative viability |
| --- | --- |
| NCI-H1755 | 0.759 |
| NCI-H2023 | 0.461 |
| HCC-15 | 0.346 |
| NCI-H1793 | 0.359 |
| PC-14 | 0.583 |
| EKVX | 0.377 |
| LC-2-ad | 0.883 |
| NCI-H1944 | 0.408 |
| NCI-H1975 | 0.292 |
| RERF-LC-KJ | 0.902 |
| NCI-H358 | 0.149 |
| NCI-H650 | 0.906 |
| PC-3 [JPC-3] | 0.673 |

same assay, conditions: first compound 0.02 µM

| Cell Line | relative viability |
| --- | --- |
| NCI-H1755 | 0.724 |
| NCI-H2023 | 0.304 |
| HCC-15 | 0.365 |
| NCI-H1793 | 0.244 |
| PC-14 | 0.367 |
| EKVX | 0.258 |
| LC-2-ad | 0.99 |
| NCI-H1944 | 0.364 |
| NCI-H1975 | 0.323 |
| RERF-LC-KJ | 0.772 |
| NCI-H358 | 0.124 |
| NCI-H650 | 0.942 |
| PC-3 [JPC-3] | 0.76 |

same assay, conditions: first compound 0.06325 µM

| Cell Line | relative viability |
| --- | --- |
| NCI-H1755 | 0.611 |
| NCI-H2023 | 0.103 |
| HCC-15 | 0.215 |
| NCI-H1793 | 0.231 |
| PC-14 | 0.0961 |
| EKVX | 0.229 |
| LC-2-ad | 0.969 |
| NCI-H1944 | 0.23 |
| NCI-H1975 | 0.191 |
| RERF-LC-KJ | 0.407 |
| NCI-H358 | 0.104 |
| NCI-H650 | 0.527 |
| PC-3 [JPC-3] | 0.595 |

same assay, conditions: first compound 0.2 µM

| Cell Line | relative viability |
| --- | --- |
| NCI-H1755 | 0.486 |
| NCI-H2023 | 0.0921 |
| HCC-15 | 0.162 |
| NCI-H1793 | 0.196 |
| PC-14 | 0.0834 |
| EKVX | 0.213 |
| LC-2-ad | 0.863 |
| NCI-H1944 | 0.22 |
| NCI-H1975 | 0.161 |
| RERF-LC-KJ | 0.467 |
| NCI-H358 | 0.106 |
| NCI-H650 | 0.424 |
